Data published in patent US10434116B2 (priority 2014, dated 2019).
Entries after “also recorded” stand apart in the source; their conditions may differ. Structures can show the parent of a compound that is named as a salt. Where two headings read alike, the source gives them in different places.

Key:
[1] = test system: MERS-CoV; assay: microbe, parasite or virus in culture; assay type: cell-based, MERS-CoV strain Hu/Jordan-N3/2012; settings: for EC50: read-out: EC50 against MERS-CoV
[2] = test system: MERS-CoV (Jordan); assay: microbe, parasite or virus in culture; assay type: cell-based; settings: Middle East respiratory syndrome-related coronavirus, Vero C1008, read-out: EC50 for MERS-CoV (virus production, TCID50)
[3] = test system: SARS-CoV; assay: microbe, parasite or virus in culture; assay type: cell-based; settings: Severe acute respiratory syndrome coronavirus, Vero C1008, read-out: EC50 for SARS-CoV (virus production, TCID50)
[4] = test system: SARS-CoV; settings: mouse, in vivo; cited from earlier work
[5] = test system: Vero E6 cells
[6] = test system: MERS-S pseudoparticles; assay type: cell-based, MERS-CoV
[7] = test system: MERS-CoV; assay type: cell-based
[8] = test system: SARS-CoV; assay type: cell-based
[9] = test system: MERS-CoV; assay: microbe, parasite or virus in culture; assay type: cell-based; settings: Middle East respiratory syndrome-related coronavirus, Vero C1008, read-out: IC50 value for MERS-CoV (TCID50 assay)
[10] = test system: SARS-CoV; assay: microbe, parasite or virus in culture; assay type: cell-based; settings: Severe acute respiratory syndrome coronavirus, Vero C1008, read-out: IC50 value for SARS-CoV (TCID50 assay)
[11] = test system: MERS-CoV; settings: cited from earlier work
[12] = test system: SARS-CoV; settings: cited from earlier work
[13] = Middle East respiratory syndrome-related coronavirus, Vero C1008, 48 h, read-out: MERS-CoV IC50
[14] = Middle East respiratory syndrome-related coronavirus, Vero
[15] = Middle East respiratory syndrome-related coronavirus, Vero C1008, 48 h, read-out: IC50 against MERS-CoV

SMILES | IC50 [1, 13] | toxicity [5] | further results
CCN(CC)Cc1cc(Nc2ccnc3cc(Cl)ccc23)ccc1O | 6.21 µM | – | –
CC[C@H]1CN2CCc3cc(OC)c(OC)cc3[C@@H]2C[C@@H]1C[C@H]1NCCc2cc(OC)c(OC)cc21 | 0.014 µM | – | –
COc1ccc(C[C@H]2NC[C@H](O)[C@H]2OC(C)=O)cc1 [Anisomycin] | – | – | IC50 ([1]; read-out: MERS-CoV IC50): 0.003 µM
CCN(CC)CCCC(C)Nc1ccnc2cc(Cl)ccc12 (centres unmarked) [Chloroquine Phosphate] | 6.28 µM | – | EC50 [1, 14]: 9.51 µM; EC50 [1]: 6.28 µM; EC50 [2]: 18.4 µM; EC50 [3]: 6.43 µM; efficacy in reducing SARS-CoV virus titers [4]: did not show efficacy
CN(C)CCOC(C)(c1ccccc1)c1ccc(Cl)cc1 (centres unmarked) [Chlorphenoxamine hydrochloride] | 12.6 µM | – | –
CN(C)CCCN1c2ccccc2Sc2ccc(Cl)cc21 [Chlorpromazine hydrochloride] | 9.51 µM | low toxicity | IC50 [1, 15]: 5.76 to 12.9 µM; EC50 [2]: 19.4 µM; EC50 [3]: 4.86 µM
O=C1NCN(c2ccccc2)C12CCN(CCCC(c1ccc(F)cc1)c1ccc(F)cc1)CC2 [Fluspirilene] | 7.48 µM | – | –
Nc1ccn([C@@H]2O[C@H](CO)[C@@H](O)C2(F)F)c(=O)n1 [Gemcitabine hydrochloride] | 1.22 µM | low toxicity | EC50 [1, 14]: 1.2 µM; CCF2 signal (fluorescence) [6]: 95 % of control
COC(=O)C[C@](O)(CCCC(C)(C)O)C(=O)O[C@@H]1C(OC)=C[C@]23CCCN2CCc2cc4c(cc2[C@H]13)OCO4 [Homoharringtonine] | 0.0718 µM | – | –
CCN(CCO)CCCC(C)Nc1ccnc2cc(Cl)ccc12 (centres unmarked) [Hydroxychloroquine sulfate] | 8.28 µM | – | –
Cc1ccc(NC(=O)c2ccc(CN3CCN(C)CC3)cc2)cc1Nc1nccc(-c2cccnc2)n1 [Imatinib mesylate] | – | low toxicity | inhibition of virus growth, MERS-CoV [7]: significant inhibition of virus growth; also recorded: little inhibition of either virus; inhibition of virus growth, SARS-CoV [8]: significant inhibition of virus growth; also recorded: little inhibition of either virus; CCF2 signal (fluorescence) [6]: 7.8 % of control
OC(c1cc(C(F)(F)F)nc2c(C(F)(F)F)cccc12)C1CCCCN1 (centres unmarked) [Mefloquine] | 7.42 µM | – | –
Cc1cn(-c2cc(NC(=O)c3ccc(C)c(Nc4nccc(-c5cccnc5)n4)c3)cc(C(F)(F)F)c2)cn1 [Nilotinib] | 5.47 µM | low toxicity | activity against MERS-CoV (in words) [1]: does not significantly inhibit MERS-CoV; maximum inhibition of MERS-CoV [1]: 39%; IC50 [9]: 9.53 µM; IC50 [10]: 2300 nM; inhibition of virus growth, SARS-CoV [8]: significant inhibition of virus growth; also recorded: little inhibition of either virus
CC(CN1c2ccccc2Sc2ccccc21)N(C)C (centres unmarked) [Promethazine hydrochloride] | 11.8 µM | – | –
CC(C)N1CCN(c2ccc(OCC3COC(Cn4cncn4)(c4ccc(Cl)cc4Cl)O3)cc2)CC1 (centres unmarked) [Terconazole] | 12.2 µM | – | –
CCSc1ccc2c(c1)N(CCCN1CCN(C)CC1)c1ccccc1S2 [Thiethylperazine maleate] | 7.87 µM | – | –
CN1CCN(CC/C=C2/c3ccccc3Sc3ccc(S(=O)(=O)N(C)C)cc32)CC1 [Thiothixene] | 9.3 µM | – | –
CN(C)CCOc1ccc(/C(=C(/CCCl)c2ccccc2)c2ccccc2)cc1 [Toremifene citrate] | 12.9 µM | low toxicity | EC50 [1, 14]: 12.9 µM
CN(C)CCCN1c2ccccc2Sc2ccc(C(F)(F)F)cc21 [Triflupromazine hydrochloride] | 5.76 µM | low toxicity | IC50 [1, 15]: 5.76 to 12.9 µM; IC50 ([1]; read-out: IC50 against MERS-CoV, hydrochloride): 5.76 µM
CCN(CC)CCOc1ccc(C(O)(Cc2ccc(Cl)cc2)c2ccc(C)cc2)cc1 (centres unmarked) [Triparanol] | 5.28 µM | – | –
Cc1nc(Nc2ncc(C(=O)Nc3c(C)cccc3Cl)s2)cc(N2CCN(CCO)CC2)n1 [dasatinib] | – | low toxicity | –
COc1c(C)c2c(c(O)c1C/C=C(\C)CCC(=O)O)C(=O)OC2 [mycophenolic acid (MPA), mycophenolic acid] | – | – | effect against MERS-CoV infection in vitro [11]: highly effective; activity against SARS-CoV infection [12]: little activity
COC(=O)Nc1nc2ccc(C(=O)c3cccs3)cc2[nH]1 [nocodazole] | – | – | activity against MERS-CoV (in words) [1]: high activity
